# Measurements published in US20240148671A1, “METHODS FOR IMPROVING POULTRY HEALTH” (CORNELL UNIVERSITY, priority 2021, published 2024).
# Marks after values point to notes of the source that are not given here.
# How the values were obtained:
# [1] = Fe and Zn content in the serum and liver samples; assay type: in vivo, Gallus gallus
# Procedure: (§1) The pure resveratrol and pterostilbene were individually diluted in 18 MΩ H2O. The intra-amniotic administration followed the methodology previously described. On the 17th day of embryonic development, the eggs with viable embryos (n=60) were randomly allocated into 6 groups (n=10) with a similar weight frequency distribution. For the intra-amniotic treatment, 1 mL of solution per egg was injected into the amniotic fluid (via candling) with the aid of a 21-gauge needle. After the procedure, the injection sites were sealed with cellophane tape, and the eggs were distributed into six groups: (1) no injection; (2) 18 MΩ H2O; (3) 5% inulin; (4) 5% resveratrol; (5) 5% pterostilbene; and (6) synergistic: 4.75% resveratrol and 0.25% pterostilbene. […] The eggs were equally distributed in each incubator location to reduce possible allocation bias. Upon hatching (21 days), the hatchlings were euthanized by CO2 exposure, and the blood, liver, heart, pectoral muscle, small intestine and cecum were obtained.
# The serum (50 μL) and liver (0.5 g) samples were mixed with 3.0 mL of a 60:40 (v/v) solution of nitric acid (HNO3) and perchloric acid (HClO4) and incubated overnight. After this, the samples were heated for 2 hours at 120° C. and added to 0.25 mL of 40 μg/g yttrium (internal standard), and the block temperature was increased to 145° C. for 2 h and then 190° C. for 10 min. At the end of these procedures, the samples were cooled, diluted to a total volume of 20 mL, mixed and transferred into autosampler tubes for analysis (inductively coupled plasma atomic emission spectrometer) (Thermo, Franklin, MA, USA).
# [2] = system: cecal microbiome; assay: 16S rRNA gene sequencing of the cecal microbiota; assay type: in vivo, Gallus gallus; conditions: cecal content at hatch
# Procedure: as §1
# As was formerly described, cecal samples were used to extract microbial genomic DNA (PowerSoil DNA isolation kit, MoBio Laboratories Ltd., Carlsbad, CA, USA). […] The PCR products were purified (Beckman Coulter, Atlanta, GA, USA) and quantified (Quant-iT PicoGreen dsDNA quantitation kit, Invitrogen, Carlsbad, CA, USA). […]
# The 16S rRNA gene sequence analysis was performed using QIIME2 as previously described. The sequence reads were demultiplexed by per-sample barcodes, and the Divisive Amplicon Denoising Algorithm (DADA2) was used to correct the Illumina-sequenced amplicon read errors. […] The alpha and β diversity were calculated from samples containing at least 9.800 sequences. The alpha diversity parameter, a measure of the richness of the bacterial community, was calculated using the Shannon Index, and the beta diversity was assessed by a Jaccard similarity distance matrix. […]
# The values in this paper were expressed as means and standard errors of the means (SEM). […] The results were analyzed by Analysis of Variance (ANOVA). […]
# [3] = liver, intra-amniotic 1 mL/egg on day 17, at hatch, mean ± SEM, n=8
# [4] = serum, intra-amniotic 1 mL/egg on day 17, at hatch, mean ± SEM, n=8
structure (smiles),measurement,setting,value
"Oc1ccc(C=Cc2cc(O)cc(O)c2)cc1 [5% Resveratrol, Resveratrol]",Liver iron concentration vs inulin positive control,[1]; compared with the inulin positive control,similar
same,Liver Iron (μg/g),[1]; [3],46.45 ± 4.71 ^a μg/g
same,Liver Zinc (μg/g),[1]; [3],16.72 ± 1.58 ^b μg/g
same,Serum Iron (μg/g),[1]; [4],2.42 ± 0.23 ^b μg/g
same,Serum Zinc (μg/g),[1]; [4],0.97 ± 0.12 ^bc μg/g
same,"β diversity of the cecal microbiome (Jaccard distances), comparison between groups","[2]; n=5, 5% inulin vs all other experimental groups (p<0.01), 5% pterostilbene vs 18 MΩ H2O control (p<0.05), stilbene groups among each other",strong clustering
same,Most differentially enriched taxa (LEfSe) vs no injection control,"[2]; compared with the no injection control group, p<0.05 (FIGS. 5A-5B)",Enterobacteriales order and Enterobacteriaceae family
